Several values for one entry are separate records, joined by “and”; a condition that tells them apart may be missing. Equal values may be shown once. Entries after “also recorded” stand apart in the source; their conditions may differ.
Assays:
[1] = test system: patients with diabetic macular edema; test: Central Foveal Thickness by ocular coherence tomography in diabetic macular edema patients given the disclosed compound subcutaneously plus intravitreal anti-VEGF agent; assay type: in vivo, human
Method: The disclosed Figures represent a control or baseline study used as a benchmark for determining the effectiveness of the disclosed methods for treating ocular diseases (FIGS. 1 and 3) and studies directed to the disclosed methods. Described herein below, four patients with visual acuity loss due to diabetic macular edema (central retinal thickness [CRT] of more than 325 microns and best corrected visual acuity less than 70 letters) were treated with subcutaneous injections of 5 mg of the disclosed compound twice a day for 28 days and then observed for an additional two months (days 28 through 84). At any time during the course of the study, investigators could administer additional therapy consisting of intravitreal injection of an anti-VEGF agent, for example, ranibizumab, bevacizumab and/or aflibercept if considered by the investigator to be medically necessary. Retinal thickness as measured by ocular coherence tomography and best corrected visual acuity as measured by a standard vision test were assessed at regular intervals during the 28 day active treatment phase and through the 2 month post-treatment observation phase, (Screening, Day 1 [baseline], Day 7, Day 14, Day 21, Day 28, Day 42, Day 56 and Day 84). The main efficacy outcomes for the study were change in CRT and visual acuity over time with treatment. FIG. 2 depicts the results of a study wherein 4 patients received 5 mg of the disclosed compound subcutaneously twice daily for 28 days and subsequently were treated in one or both eyes (7 eyes total) with either ranibizumab (0.3 or 0.5 mg) or aflibercept (2 mg) by intravitreal injection at the discretion of the study investigator. […] The mean change in Central Foveal Thickness was −289 μm, approximately double the reduction seen 7 days to one month after ranibizumab injection in the benchmark study as depicted in FIG. 1. FIG. 5 represents the results of a single patient. The eye having the greater Central Foveal Thickness is chosen as the Study Eye. The patient from day one was given 5 mg of the disclosed compound subcutaneously twice daily. At week 3 (21 days, indicated by arrow) the fellow eye is treated with 0.5 mg of ranibizumab. At week 6 (42 days, indicated by arrow) the treated eye is treated with 0.5 mg of ranibizumab. […] Without wishing to be limited by theory, it is believed that when the fellow eye is treated with an injection of 0.5 mg of ranibizumab, the ranibizumab enters the study eye systemically. […] At week 6, the study eye is treated with an intravitreal injection of 0.5 mg of ranibizumab. As depicted in FIG. 5, by week 8, there is an overall reduction in CFT of approximately 690 μm, wherein the CFT of the subject eye is approximately 180 μm. Although the Fellow Eye began with less CFT than the study eye, nevertheless, treatment with ranibizumab at week 3 (day 21) produced a change in CFT of approximately 430 μm. […] FIG. 6 represents the results of a single patient. The eye having the greater Central Foveal Thickness is chosen as the Treated Eye (Study Eye). The patient from day one was given 5 mg of the disclosed compound subcutaneously twice daily. At week 3 (21 days, indicated by arrow) the fellow eye is rescued with 2 mg of aflibercept. […] At week 6 (42 days, indicated by arrow) the treated eye is rescued with 2 mg of aflibercept. […] The disclosed Figures represent a control or baseline study used as a benchmark for determining the effectiveness of the disclosed methods for treating ocular diseases (FIGS. 1 and 3) and studies directed to the disclosed methods. Described herein below, four patients with visual acuity loss due to diabetic macular edema (central retinal thickness [CRT] of more than 325 microns and best corrected visual acuity less than 70 letters) were treated with subcutaneous injections of 5 mg of the disclosed compound twice a day for 28 days and then observed for an additional two months (days 28 through 84). […]

[2] = test system: patients with diabetic macular edema; test: Best corrected visual acuity (letters) in diabetic macular edema patients given the disclosed compound subcutaneously plus intravitreal anti-VEGF agent; assay type: in vivo, human; settings: 5 mg s.c. twice daily 28 days, then ranibizumab or aflibercept intravitreal; 14-28 days post anti-VEGF (FIG. 4)
Method: The disclosed Figures represent a control or baseline study used as a benchmark for determining the effectiveness of the disclosed methods for treating ocular diseases (FIGS. 1 and 3) and studies directed to the disclosed methods. Described herein below, four patients with visual acuity loss due to diabetic macular edema (central retinal thickness [CRT] of more than 325 microns and best corrected visual acuity less than 70 letters) were treated with subcutaneous injections of 5 mg of the disclosed compound twice a day for 28 days and then observed for an additional two months (days 28 through 84). At any time during the course of the study, investigators could administer additional therapy consisting of intravitreal injection of an anti-VEGF agent, for example, ranibizumab, bevacizumab and/or aflibercept if considered by the investigator to be medically necessary. Retinal thickness as measured by ocular coherence tomography and best corrected visual acuity as measured by a standard vision test were assessed at regular intervals during the 28 day active treatment phase and through the 2 month post-treatment observation phase, (Screening, Day 1 [baseline], Day 7, Day 14, Day 21, Day 28, Day 42, Day 56 and Day 84). The main efficacy outcomes for the study were change in CRT and visual acuity over time with treatment. […]

[3] = molecular target: HPTP-β (Homo sapiens (Human), UniProt P23467); test: HPTP-β inhibition (IC50); assay type: biochemical; settings: read-out: HPTPβ IC50
[4] = single patient (FIG. 5), 5 mg s.c. twice daily, study eye given 0.5 mg ranibizumab at week 6
[5] = single patient, aflibercept protocol (FIG. 6)

Sequence of HPTP-β (P23467 23-1997): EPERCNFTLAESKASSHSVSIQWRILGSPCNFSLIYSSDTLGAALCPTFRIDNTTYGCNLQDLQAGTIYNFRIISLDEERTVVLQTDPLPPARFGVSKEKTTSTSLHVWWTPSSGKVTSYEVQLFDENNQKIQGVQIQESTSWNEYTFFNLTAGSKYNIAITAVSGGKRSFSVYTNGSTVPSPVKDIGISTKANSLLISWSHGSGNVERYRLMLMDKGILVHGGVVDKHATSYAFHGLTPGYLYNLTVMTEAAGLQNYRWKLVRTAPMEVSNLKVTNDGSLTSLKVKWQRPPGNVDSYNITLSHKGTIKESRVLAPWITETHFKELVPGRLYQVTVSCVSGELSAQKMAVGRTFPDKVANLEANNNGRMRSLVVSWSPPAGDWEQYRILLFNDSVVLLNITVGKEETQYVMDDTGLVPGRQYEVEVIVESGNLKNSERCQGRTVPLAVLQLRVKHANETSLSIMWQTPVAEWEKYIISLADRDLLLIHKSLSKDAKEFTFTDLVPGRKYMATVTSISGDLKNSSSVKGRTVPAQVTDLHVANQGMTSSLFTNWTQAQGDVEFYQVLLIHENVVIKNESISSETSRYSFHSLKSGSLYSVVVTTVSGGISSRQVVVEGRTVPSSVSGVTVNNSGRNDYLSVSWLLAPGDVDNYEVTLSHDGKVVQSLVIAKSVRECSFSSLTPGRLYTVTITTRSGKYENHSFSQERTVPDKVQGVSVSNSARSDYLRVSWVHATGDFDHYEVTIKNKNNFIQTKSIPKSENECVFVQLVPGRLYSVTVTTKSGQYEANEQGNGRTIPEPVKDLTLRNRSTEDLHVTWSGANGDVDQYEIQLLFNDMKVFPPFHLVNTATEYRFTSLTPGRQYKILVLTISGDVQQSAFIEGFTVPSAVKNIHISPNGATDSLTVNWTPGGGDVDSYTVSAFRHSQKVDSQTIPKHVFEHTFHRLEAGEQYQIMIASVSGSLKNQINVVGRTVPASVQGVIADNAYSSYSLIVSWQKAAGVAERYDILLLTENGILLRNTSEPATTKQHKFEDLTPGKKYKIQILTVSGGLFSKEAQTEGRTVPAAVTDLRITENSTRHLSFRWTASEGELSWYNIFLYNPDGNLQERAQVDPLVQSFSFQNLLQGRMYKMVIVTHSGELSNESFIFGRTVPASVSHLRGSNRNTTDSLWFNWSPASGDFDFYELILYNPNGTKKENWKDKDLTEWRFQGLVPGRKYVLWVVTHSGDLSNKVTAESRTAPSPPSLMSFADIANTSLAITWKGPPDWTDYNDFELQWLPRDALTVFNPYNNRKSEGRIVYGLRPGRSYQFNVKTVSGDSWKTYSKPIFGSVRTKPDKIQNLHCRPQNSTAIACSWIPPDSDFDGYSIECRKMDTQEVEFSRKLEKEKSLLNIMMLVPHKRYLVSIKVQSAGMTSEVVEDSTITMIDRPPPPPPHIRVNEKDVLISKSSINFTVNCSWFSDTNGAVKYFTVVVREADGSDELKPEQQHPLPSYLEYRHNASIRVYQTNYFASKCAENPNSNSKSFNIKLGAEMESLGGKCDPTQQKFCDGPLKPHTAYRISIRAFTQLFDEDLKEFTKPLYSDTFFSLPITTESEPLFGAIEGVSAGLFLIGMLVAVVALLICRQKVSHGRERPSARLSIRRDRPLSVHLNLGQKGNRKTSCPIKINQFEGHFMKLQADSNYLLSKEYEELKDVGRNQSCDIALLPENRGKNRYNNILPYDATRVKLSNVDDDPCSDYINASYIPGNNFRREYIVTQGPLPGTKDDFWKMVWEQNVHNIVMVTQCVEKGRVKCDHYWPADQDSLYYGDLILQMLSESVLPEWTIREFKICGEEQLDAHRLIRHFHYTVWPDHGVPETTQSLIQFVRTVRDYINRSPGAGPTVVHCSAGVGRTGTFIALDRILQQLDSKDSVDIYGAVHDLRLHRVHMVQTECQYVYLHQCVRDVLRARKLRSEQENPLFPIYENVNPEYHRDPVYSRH

| IC50 [3] [pM] | Compound | Central Foveal Reduction, individual patient eye ([1]; 5 mg s.c. twice daily 28 days, then ranibizumab (0.3 or 0.5 mg) or aflibercept (2 mg) intravitreal, 14-28 days post anti-VEGF, 7 eyes (FIG. 2)) | mean change in Central Foveal Thickness ([1]; 5 mg s.c. twice daily 28 days, then ranibizumab or aflibercept intravitreal, 14-28 days post anti-VEGF, 7 eyes (FIG. 2)) [μm] | CFT reduction relative to reduction after ranibizumab in benchmark study ([1]; combination versus FIG. 1 benchmark) | CFT of study eye at week 6 ([1]; single patient (FIG. 5), 5 mg s.c. twice daily, before ranibizumab to study eye) | change in CFT, fellow eye, after ranibizumab at week 3 ([1]; single patient (FIG. 5), 5 mg s.c. twice daily, fellow eye given 0.5 mg ranibizumab at day 21, by week 4) | reduction in CFT, study eye, day 21 to day 28 ([1]; single patient (FIG. 5), 5 mg s.c. twice daily, fellow eye given 0.5 mg ranibizumab at week 3) | CFT of study eye at week 8 [1, 4] | overall reduction in CFT, study eye, by week 8 [1, 4] | CFT reduction, fellow eye, after rescue ([1]; single patient (FIG. 6), 5 mg s.c. twice daily, fellow eye rescued with 2 mg aflibercept) | CFT reduction, study eye, after rescue ([1]; single patient (FIG. 6), 5 mg s.c. twice daily, study eye rescued with 2 mg aflibercept at week 6) | reduction of CFT from onset of the study, non-treated eye [1, 5] [μm] | reduction of CFT from onset of the study, study eye [1, 5] | mean change in Visual Acuity [2] [letters] |
| --- | --- | --- | --- | --- | --- | --- | --- | --- | --- | --- | --- | --- | --- | --- |
|  | COC(=O)N[C@@H](Cc1ccccc1)C(=O)N[C@@H](Cc1ccc(NS(=O)(=O)O)cc1)c1csc(-c2cccs2)n1 [the disclosed compound, 4-{(S)-2-[(S)-2-(methoxycarbonylamino)-3-phenylpropanamido]-2-[2-(thiophen-2-yl)thiazol-4-yl]ethyl}phenylsulfamic acid] | 50-100 μm and 150-200 μm and 200-250 μm and 300-350 μm and 350-400 μm and 450-500 μm | −289 | approximately double | approximately 775 μm | approximately 430 μm and 350 μm | approximately 300 μm; also recorded: approximately 250 μm | approximately 180 μm; also recorded: approximately 225 μm | approximately 690 μm; also recorded: approximately 500 μm | approximately 400 μm | approximately 310 μm; also recorded: approximately 300 μm | ~280 | approximately 300 μm | 9 |
| < 2 | COC(=O)N[C@@H](Cc1ccccc1)C(=O)N[C@@H](Cc1ccc(NS(=O)(=O)O)cc1)c1nc(-c2ccccc2)cs1 [AA21, 4-{(S)-2-[(S)-2-(Methoxycarbonylamino)-3-phenylpropanamido]-2-(4-phenylthiazol-2-yl)ethyl}phenylsulfamic acid] |  |  |  |  |  |  |  |  |  |  |  |  |  |

— patent publication US10220048B2, “Compositions and methods for treating ocular diseases” (Aerpio Therapeutics, Inc., priority 2013, dated 2019)
